SMILES strings stand for the structures.

The target in one assay is T1, mTOR (Homo sapiens, UniProt P42345).
T1 construct: FLAG; made in house
T1 sequence (P42345 1362-2549): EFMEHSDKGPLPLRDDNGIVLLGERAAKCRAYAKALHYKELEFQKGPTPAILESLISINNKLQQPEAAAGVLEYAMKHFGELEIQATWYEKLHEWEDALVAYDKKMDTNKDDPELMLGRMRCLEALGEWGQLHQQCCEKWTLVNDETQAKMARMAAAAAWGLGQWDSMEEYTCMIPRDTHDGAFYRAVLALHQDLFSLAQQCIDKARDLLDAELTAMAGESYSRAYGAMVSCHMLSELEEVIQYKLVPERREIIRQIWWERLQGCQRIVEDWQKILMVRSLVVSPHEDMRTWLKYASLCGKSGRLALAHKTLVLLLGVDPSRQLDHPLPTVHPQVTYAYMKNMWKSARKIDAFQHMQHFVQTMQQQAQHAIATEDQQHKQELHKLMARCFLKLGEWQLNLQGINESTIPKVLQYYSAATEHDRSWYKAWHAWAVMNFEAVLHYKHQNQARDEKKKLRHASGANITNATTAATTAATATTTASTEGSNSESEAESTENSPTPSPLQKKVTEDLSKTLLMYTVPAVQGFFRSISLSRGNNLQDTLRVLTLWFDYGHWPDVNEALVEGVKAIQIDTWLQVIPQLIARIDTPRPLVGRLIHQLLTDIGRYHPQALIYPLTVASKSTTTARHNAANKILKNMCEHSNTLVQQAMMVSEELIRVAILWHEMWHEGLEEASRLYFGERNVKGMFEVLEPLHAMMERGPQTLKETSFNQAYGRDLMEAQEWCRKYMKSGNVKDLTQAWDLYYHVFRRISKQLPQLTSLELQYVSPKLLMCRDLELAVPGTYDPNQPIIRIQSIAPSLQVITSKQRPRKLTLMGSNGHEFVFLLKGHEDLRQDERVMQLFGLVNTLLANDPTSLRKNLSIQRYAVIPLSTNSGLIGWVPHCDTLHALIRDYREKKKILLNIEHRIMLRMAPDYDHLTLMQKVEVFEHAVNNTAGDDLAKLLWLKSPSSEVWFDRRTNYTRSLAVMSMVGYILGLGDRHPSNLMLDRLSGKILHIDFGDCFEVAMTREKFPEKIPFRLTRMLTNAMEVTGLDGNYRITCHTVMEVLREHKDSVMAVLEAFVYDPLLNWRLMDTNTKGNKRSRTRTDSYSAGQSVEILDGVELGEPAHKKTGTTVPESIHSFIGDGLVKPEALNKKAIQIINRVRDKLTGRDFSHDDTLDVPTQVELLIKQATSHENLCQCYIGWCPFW
The assay is described as follows: In Vitro mTOR Kinase Assay (Echo), Test (a)(ii). It is filed as biochemical. The conditions noted are these: read-out: mTOR Kinase Assay (Echo). An outline of the steps: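 FLAG-tagged human mTOR truncation (residues 1362-2549) expressed in HEK293 cells and FLAG-purified. Compounds dispensed acoustically, reaction 2 h at room temperature, stopped with EDTA. Phosphorylation of biotinylated peptide detected by AlphaScreen with anti-p70 S6K (T389) antibody overnight; IC50 reported.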
As to `C[C@H]1COCCN1c1cc(C2(S(=O)(=O)c3ccc(F)cc3)CC2)nc(-c2ccc(NC(=O)NC3CCC3)cc2)n1` [Example 8d, 3-cyclobutyl-1-[4-[4-[1-(4-fluorophenyl)sulfonylcyclopropyl]-6-[(3S)-3-methylmorpholin-4-yl]pyrimidin-2-yl]phenyl]urea], the IC50 came to 1.34 nM.
Same read-out and setting: under `C[C@H]1COCCN1c1cc(C2(S(=O)(=O)C3CCCC3)CC2)nc(-c2ccc(NC(=O)NC3CCC3)cc2)n1` [Example 9a] stands 12.9 nM.
On to `CC(C)CNC(=O)Nc1ccc(-c2nc(N3CCOC[C@@H]3C)cc(C3(S(=O)(=O)c4ccncc4)CC3)n2)cc1` [Example 6b, 1-[4-[4-[(3S)-3-methylmorpholin-4-yl]-6-(1-pyridin-4-ylsulfonylcyclopropyl)pyrimidin-2-yl]phenyl]-3-(2-methylpropyl)urea], for which the IC50 was 6.12 nM.
Still for that read-out and setting: under `Cc1ccc(NC(=O)Nc2ccc(-c3nc(N4CCOC[C@@H]4C)cc(C4(S(C)(=O)=O)CC4)n3)cc2)cc1` [Example 2r, 1-[4-[4-[(3S)-3-methylmorpholin-4-yl]-6-(1-methylsulfonylcyclopropyl)pyrimidin-2-yl]phenyl]-3-(4-methylphenyl)urea] stands 0.66 nM.
`CCS(=O)(=O)C1(c2cc(N3CCOC[C@@H]3C)nc(-c3ccc(NC(=O)NCC(C)C)cc3)n2)CC1` [Example 11i, 1-[4-[4-(1-ethylsulfonylcyclopropyl)-6-[(3S)-3-methylmorpholin-4-yl]pyrimidin-2-yl]phenyl]-3-(2-methylpropyl)urea]: the IC50 was found to be 29.4 nM.

Staying with this assay, now noted: table of enzyme assay Test (a)(ii); read-out: Test (a)(ii) IC50.
For the molecule `C[C@H]1COCCN1c1cc(C2(S(=O)(=O)c3ccccc3Cl)CC2)nc(-c2ccc(NC(=O)NCCF)cc2)n1` [Example 76e, 1-[4-[4-[1-(2-chlorophenyl)sulfonylcyclopropyl]-6-[(3S)-3-methylmorpholin-4-yl]pyrimidin-2-yl]phenyl]-3-(2-fluoroethyl)urea], the IC50 was found to be 5.66 nM.
As to `C[C@H]1COCCN1c1cc(C2(S(=O)(=O)C3CCCCC3)CC2)nc(-c2ccc(NC(=O)NC(C)(C)CO)cc2)n1` [Example 26f, 1-[4-[4-(1-cyclohexylsulfonylcyclopropyl)-6-[(3S)-3-methylmorpholin-4-yl]pyrimidin-2-yl]phenyl]-3-(1-hydroxy-2-methylpropan-2-yl)urea], the IC50 came to 4.57 nM.
On the same count and under the same terms, the same measure for `Cc1csc(S(=O)(=O)C2(c3cc(N4CCOC[C@@H]4C)nc(-c4ccc(NC(=O)NCc5ncc[nH]5)cc4)n3)CCC2)n1` [Example 98c, 3-(1H-imidazol-2-ylmethyl)-1-[4-[4-[(3S)-3-methylmorpholin-4-yl]-6-[1-[(4-methyl-1,3-thiazol-2-yl)sulfonyl]cyclobutyl]pyrimidin-2-yl]phenyl]urea]: 26.7 nM; for `C[C@H]1COCCN1c1cc(C2(S(=O)(=O)CCCO)CC2)nc(-c2ccc(NC(=O)NC#N)cc2)n1` [Example 36co, 3-cyano-1-[4-[4-[1-(3-hydroxypropylsulfonyl)cyclopropyl]-6-[(3S)-3-methylmorpholin-4-yl]pyrimidin-2-yl]phenyl]urea]: 1620 nM; for `C[C@H]1COCCN1c1cc(C2(S(=O)(=O)c3ccc(F)cc3)CC2)nc(-c2ccc(NC(=O)Nc3ccccn3)cc2)n1` [Example 8l, 1-[4-[4-[1-(4-fluorophenyl)sulfonylcyclopropyl]-6-[(3S)-3-methylmorpholin-4-yl]pyrimidin-2-yl]phenyl]-3-pyridin-2-yl-urea]: 8.13 nM.
`C[C@H]1COCCN1c1cc(C2(S(=O)(=O)CCCO)CCC2)nc(-c2ccc(NC(=O)NCCC#N)cc2)n1` [Example 43c, 3-(2-cyanoethyl)-1-[4-[4-[1-(3-hydroxypropylsulfonyl)cyclobu-tyl]-6-[(3S)-3-methylmorpholin-4-yl]pyrimidin-2-yl]phenyl]urea]: the IC50 came out at 28.8 nM.
Still for that read-out and setting: the same measure for `C[C@H]1COCCN1c1cc(C2(S(=O)(=O)C3CC3)CC2)nc(-c2cnc(NC(=O)NCCO)nc2)n1` [Example 14y, 1-[5-[4-(1-cyclopropylsulfonylcyclopropyl)-6-[(3S)-3-methylmorpholin-4-yl]pyrimidin-2-yl]pyrimidin-2-yl]-3-(2-hydroxyethyl)urea]: 152 nM; for `C[C@H]1COCCN1c1cc(C2(S(=O)(=O)CCCOC(F)F)CC2)nc(-c2ccc(NC(=O)NCCF)cc2)n1` [Example 96a, 1-[4-[4-[1-[3-(difluoromethoxy)propylsulfonyl]cyclopropyl]-6-[(3S)-3-methylmorpholin-4-yl]pyrimidin-2-yl]phenyl]-3-(2-fluoroethyl)urea]: 17.7 nM; for `CCCNC(=O)Nc1ccc(-c2nc(N3CCOCC3)cc(C3(S(=O)(=O)C4CC4)CC3)n2)cc1` [Example 13g, 1-[4-[4-(1-cyclopropylsulfonylcyclopropyl)-6-morpholin-4-ylpyrimidin-2-yl]phenyl]-3-propylurea]: 4.79 nM.
Turning to `CCNC(=O)Nc1ccc(-c2nc(N3CCOC[C@@H]3C)cc(C3(S(=O)(=O)c4ccc(C#N)cc4)CC3)n2)cc1` [Example 77b, 3-[4-[4-[1-(4-cyanophenyl)sulfonylcyclopropyl]-6-[(3S)-3-methylmorpholin-4-yl]pyrimidin-2-yl]phenyl]-1-ethylurea], the IC50 stood at 8.6 nM.
As for `C[C@H]1COCCN1c1cc(C2(S(C)(=O)=O)CCNCC2)nc(-c2ccc(NC(=O)NCCO)cc2)n1` [Example 20c, 3-(2-hydroxyethyl)-1-[4-[4-[(3S)-3-methylmorpholin-4-yl]-6-(4-methylsulfonylpiperidin-4-yl)pyrimidin-2-yl]phenyl]urea], the IC50 worked out at 5.59 nM.
Still for that read-out and setting: under `C[C@H]1COCCN1c1cc(C2(S(=O)(=O)c3ccc(F)cc3)CCC2)nc(-c2ccc(NC(=O)NCCCO)cc2)n1` [Example 65a, 1-[4-[4-[1-(4-fluorophenyl)sulfonylcyclobutyl]-6-[(3S)-3-methylmorpholin-4-yl]pyrimidin-2-yl]phenyl]-3-(3-hydroxypropyl)urea] stands 6.88 nM; under `Cc1ccc(NC(=O)Nc2ccc(-c3nc(N4CCOC[C@@H]4C)cc(C4(S(C)(=O)=O)CC4)n3)cc2)cc1` [Example 2r, 1-[4-[4-[(3S)-3-methylmorpholin-4-yl]-6-(1-methylsulfonylcyclopropyl)pyrimidin-2-yl]phenyl]-3-(4-methylphenyl)urea], 1.03 nM.
Still for that read-out and setting: the same measure for `C[C@H]1COCCN1c1cc(C2(S(=O)(=O)CCCO)CC2)nc(-c2ccc(NC(=O)NCCN(C)C)cc2)n1` [Example 31l, 3-(2-dimethylaminoethyl)-1-[4-[4-[1-(3-hydroxypropylsulfonyl)cyclopropyl]-6-[(3S)-3-methylmorpholin-4-yl]pyrimidin-2-yl]phenyl]urea]: 214 nM; for `CCNC(=O)Nc1ccc(-c2nc(N3[C@@H](C)COC[C@@H]3C)cc(C3(S(=O)(=O)C4CC4)CC3)n2)cc1` [Example 92d, 1-[4-[4-(1-cyclopropylsulfonylcyclopropyl)-6-[(3S,5S)-3,5-dimethylmorpholin-4-yl]pyrimidin-2-yl]phenyl]-3-ethylurea]: 8.07 nM; for `C[C@H]1COCCN1c1cc(C2(S(=O)(=O)CCCO)CCC2)nc(-c2ccc(NC(=O)NCc3ncc[nH]3)cc2)n1` [Example 43e, 1-[4-[4-[1-(3-hydroxypropylsulfonyl)cyclobu-tyl]-6-[(3S)-3-methylmorpholin-4-yl]pyrimidin-2-yl]phenyl]-3-(1H-imidazol-2-ylmethyl)urea]: 188 nM.
Consider `CCS(=O)(=O)C1(c2cc(N3CCOC[C@@H]3C)nc(-c3ccc(NC(=S)NCCCO)cc3)n2)CCC1` [Example 88, 1-[4-[4-(1-Ethylsulfonylcyclobutyl)-6-[(3S)-3-methylmorpholin-4-yl]pyrimidin-2-yl]phenyl]-3-(3-hydroxypropyl)thiourea], for which the IC50 is 32.1 nM.

Values taken from patent US20090018134A1, “Compounds - 945” (AstraZeneca AB, priority 2007, published 2009).
